Test results from the supplement of paper PMC10307832.

Compound: Cc1ccc(Nc2nccc(N(C)c3ccc4c(C)n(C)nc4c3)n2)cc1S(N)(=O)=O [Pazopanib] + NC(=O)Nc1cc(-c2cccc(F)c2)sc1C(=O)N[C@H]1CCCNC1 [AZD7762] (partner 0.2 µM)
Assay: relative viability (nuclei count vs DMSO), 5 days (fraction); higher = more cells survive
Conditions: first compound 0.01 µM
How it was run: (§1)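 Cells from lung cancer lines were seeded into 1536-well plates and, one day later, dosed by pin tool. Treatments were either a single drug or a fixed dose of an anchor drug with five library-drug doses (not always all listed) in √10 steps. After 5 days, nuclei were stained in a one-step fixation (final 0.05% Triton X-100, 1% formaldehyde, 1 ug/ml Hoechst) and counted on 4× images, and relative viability is the treated-to-vehicle nuclei ratio, as the median of duplicate plates.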

Cell Line | relative viability
NCI-H1437 | 1.05
NCI-H1755 | 0.434
HCC-15 | 1.3
NCI-H1944 | 0.442
EKVX | 0.705
LC-2-ad | 0.834
NCI-H2170 | 0.744
NCI-H1975 | 0.612
ABC-1 | 0.797
RERF-LC-KJ | 0.796

Same assay, conditions: first compound 0.03162 µM

Cell Line | relative viability
NCI-H1915 | 0.658
HCC-827 | 0.201
LXF-289 | 1.15
NCI-H23 | 0.257
NCI-H650 | 1.07
NCI-H1651 | 0.451
EPLC-272H | 0.227
NCI-H1792 | 0.704
NCI-H1355 | 0.802
NCI-H322M | 0.539
NCI-H1437 | 1.13
NCI-H1755 | 0.433
HCC-15 | 1.15
NCI-H1944 | 0.504
PC-3 [JPC-3] | 0.742
EKVX | 0.599
LC-2-ad | 0.835
NCI-H2170 | 0.967
NCI-H1975 | 0.667
ABC-1 | 0.757
RERF-LC-KJ | 0.915

Same assay, conditions: first compound 0.1 µM

Cell Line | relative viability
NCI-H1915 | 0.667
HCC-827 | 0.217
LXF-289 | 1.12
NCI-H23 | 0.221
NCI-H650 | 1.09
NCI-H1651 | 0.484
EPLC-272H | 0.238
NCI-H1792 | 0.701
NCI-H1355 | 0.827
NCI-H322M | 0.617
NCI-H1437 | 1.19
NCI-H1755 | 0.453
HCC-15 | 1.31
NCI-H1944 | 0.595
PC-3 [JPC-3] | 0.725
EKVX | 0.755
LC-2-ad | 0.906
NCI-H2170 | 0.94
NCI-H1975 | 0.637
RERF-LC-KJ | 0.916

Same assay, conditions: first compound 0.3162 µM

Cell Line | relative viability
NCI-H1915 | 0.68
HCC-827 | 0.231
LXF-289 | 1.11
NCI-H23 | 0.374
NCI-H650 | 0.942
NCI-H1651 | 0.437
EPLC-272H | 0.132
NCI-H1792 | 0.67
NCI-H1355 | 0.727
NCI-H322M | 0.617
NCI-H1437 | 1.03
NCI-H1755 | 0.42
HCC-15 | 1.22
NCI-H1944 | 0.571
PC-3 [JPC-3] | 0.926
EKVX | 0.654
LC-2-ad | 0.92
NCI-H2170 | 0.896
NCI-H1975 | 0.76
RERF-LC-KJ | 1.02

Same assay, conditions: first compound 1 µM

Cell Line | relative viability
NCI-H1915 | 0.616
HCC-827 | 0.213
LXF-289 | 1.06
NCI-H23 | 0.271
NCI-H650 | 0.904
NCI-H1651 | 0.435
EPLC-272H | 0.217
NCI-H1792 | 0.662
NCI-H1355 | 0.719
NCI-H322M | 0.669
NCI-H1437 | 1.03
NCI-H1755 | 0.439
HCC-15 | 1.15
NCI-H1944 | 0.555
PC-3 [JPC-3] | 0.937
EKVX | 0.636
LC-2-ad | 0.85
NCI-H2170 | 0.815
NCI-H1975 | 0.692
ABC-1 | 0.804
RERF-LC-KJ | 0.992

Compound: Cc1ccc(Nc2nccc(N(C)c3ccc4c(C)n(C)nc4c3)n2)cc1S(N)(=O)=O [Pazopanib] + Nc1ncn([C@H]2C[C@H](O)[C@@H](CO)O2)c(=O)n1 [Decitabine] (partner 2 µM)
Assay: as above
Conditions: first compound 0.01 µM
How it was run: as §1

Cell Line | relative viability
NCI-H1915 | 0.244
HCC-827 | 0.333
LXF-289 | 0.395
NCI-H23 | 0.308
NCI-H650 | 0.303
NCI-H1651 | 0.543
NCI-H1355 | 0.355
NCI-H322M | 0.696
NCI-H1437 | 0.541
NCI-H1755 | 0.718
HCC-15 | 0.53
NCI-H1944 | 0.463
EKVX | 0.374
LC-2-ad | 0.88
NCI-H2170 | 0.47
NCI-H1975 | 0.374
ABC-1 | 1.01
RERF-LC-KJ | 0.66

Same assay, conditions: first compound 0.03162 µM

Cell Line | relative viability
NCI-H1915 | 0.264
HCC-827 | 0.322
LXF-289 | 0.351
NCI-H23 | 0.309
NCI-H650 | 0.299
NCI-H1651 | 0.644
EPLC-272H | 0.336
NCI-H1792 | 0.549
NCI-H1355 | 0.314
NCI-H322M | 0.748
NCI-H1437 | 0.611
NCI-H1755 | 0.709
HCC-15 | 0.712
NCI-H1944 | 0.424
PC-3 [JPC-3] | 0.885
EKVX | 0.303
LC-2-ad | 0.644
NCI-H2170 | 0.467
NCI-H1975 | 0.373
ABC-1 | 1.12
RERF-LC-KJ | 0.681

Same assay, conditions: first compound 0.1 µM

Cell Line | relative viability
NCI-H1915 | 0.263
HCC-827 | 0.293
LXF-289 | 0.39
NCI-H23 | 0.341
NCI-H650 | 0.353
NCI-H1651 | 0.644
EPLC-272H | 0.353
NCI-H1792 | 0.456
NCI-H1355 | 0.367
NCI-H322M | 0.71
NCI-H1437 | 0.626
NCI-H1755 | 0.742
HCC-15 | 0.572
NCI-H1944 | 0.424
PC-3 [JPC-3] | 0.773
EKVX | 0.324
LC-2-ad | 0.915
NCI-H2170 | 0.453
NCI-H1975 | 0.394
ABC-1 | 1
RERF-LC-KJ | 0.739

Same assay, conditions: first compound 0.3162 µM

Cell Line | relative viability
NCI-H1915 | 0.261
HCC-827 | 0.355
LXF-289 | 0.373
NCI-H23 | 0.376
NCI-H650 | 0.293
NCI-H1651 | 0.552
EPLC-272H | 0.337
NCI-H1792 | 0.621
NCI-H1355 | 0.358
NCI-H322M | 0.8
NCI-H1437 | 0.602
NCI-H1755 | 0.773
HCC-15 | 0.59
NCI-H1944 | 0.427
PC-3 [JPC-3] | 0.916
EKVX | 0.356
LC-2-ad | 0.85
NCI-H2170 | 0.449
NCI-H1975 | 0.401
ABC-1 | 1.31
RERF-LC-KJ | 0.631

Same assay, conditions: first compound 1 µM

Cell Line | relative viability
NCI-H1915 | 0.291
HCC-827 | 0.348
LXF-289 | 0.381
NCI-H23 | 0.335
NCI-H650 | 0.353
NCI-H1651 | 0.656
EPLC-272H | 0.369
NCI-H1792 | 0.524
NCI-H1355 | 0.386
NCI-H322M | 0.754
NCI-H1437 | 0.567
NCI-H1755 | 0.783
HCC-15 | 0.827
NCI-H1944 | 0.467
PC-3 [JPC-3] | 0.787
EKVX | 0.472
LC-2-ad | 0.776
NCI-H2170 | 0.428
NCI-H1975 | 0.374
ABC-1 | 0.807
RERF-LC-KJ | 0.699
